| Structure (SMILES) | melting point |
| --- | --- |
| CCCNc1ccc([N+](=O)[O-])cc1C(=O)c1ccccc1 | 150 °C |
| N#Cc1c(N2CCc3ccccc3CC2)nc(=O)[nH]c1OCC(F)(F)F | 196 to 198 °C |
| CCC(C(=O)Nc1c(C)cccc1C)N(C)C (stereo not given) | 155 to 157 °C |
| CN(C)c1cc(CC(C#N)=CNc2ccccc2)cc(N(C)C)c1N1CCCCC1 | 200 to 202 °C |
| Nc1c(Cl)ccc2c1C(=O)CO2 | 160 °C |
| CC(C)(C)OC(=O)N[C@@H](Cc1ccc(OCc2ccccc2)cc1)C(=O)NCCN1CCCCC1 | 54 to 61 °C |
| Brc1cccc2c1ccc1ccccc12 | 90 to 91 °C |
| COc1cc(C(=O)N2CCc3nnc(NN)cc3C2)cc(OC)c1OC | 194 to 197 °C |
| CN(C)C(=S)SSCCSSC(=S)N(C)C | 142 to 143 °C |
| CCNC(=O)c1ccccc1Nc1nc(Nc2cc3c(cc2OC)CCN(CC(=O)N(C)C)CC3)ncc1Cl | 99 to 111 °C |
| Cn1nc2ccccc2c1C(=O)NCC1CCN(CCc2ccc(F)cc2F)CC1 | 122 to 126 °C |
| C=CCOC(=O)C1=C2CCSC[C@@H]2[C@@H]2/C(=C\C)C(=O)N12 | 195 to 225 °C |
| COc1cc(OC)c(C)c(C(=O)NCC23CC4CC(CC(Cl)(C4)C2)C3)c1 | 173 to 175 °C |
| CS(=O)(=O)Nc1ccc(C(N)=O)cc1Oc1ccc(F)cc1F | 147 to 150 °C |
| Cc1nc2ccc(S(=O)(=O)n3c(COC(C)C(=O)O)cc4cc(C(F)(F)F)ccc43)cc2s1 (stereo not given) | 146 to 148 °C |
| CCc1ccc(C(=O)c2c(N)sc3c2CCN(C(=O)OCc2ccccc2)C3)cc1 | 121 to 123 °C |
| O=[N+]([O-])c1cn2c(n1)O[C@@H](COc1ccc(N3CCC(Cc4ccc(OC(F)(F)F)cc4)CC3)cc1)C2 | 160 to 164 °C |
| CCc1ccccc1NC(Nc1ccccc1CC)Nc1ccccc1CC | 76 to 78 °C |
| O=C(O)CN(Cc1ccc(OCc2ccc(F)cc2)cc1)C(=O)c1cn2cc(-c3ccc(Cl)cc3)ccc2n1 | 206 °C |
| COc1ccc(CCC(=O)Nc2nc3c(s2)CCN(CC=Cc2cccnc2)CC3)cc1 | 168 to 170 °C |
| O=C1CCN(C(=O)c2ccc(Cl)cc2)CC1 | 61 to 63 °C |
| CC(=O)Nc1ccc(OCC(F)(F)F)cc1 | 140 to 141 °C |
| CN1CCSc2c(C(=O)NC3CN4CCC3CC4)cc(Cl)cc21 (stereo not given) | 195 to 196 °C |
| CC1CCN=C2N1c1ccc(Br)cc1C21OCCCO1 (stereo not given) | 69 to 72 °C |
| CCOC(=O)C(=O)Nc1ccc2c(=O)n3c(nc2c1)C(=Cc1cccc(OC)c1OCC)CC3 | 174 to 177 °C |
| COCCOc1nc(NC(C)=O)nc2ccc(Cl)nc12 | 135 °C |

The next lines start with the values.

| melting point | Structure (SMILES) |
| --- | --- |
| 267 to 268 °C | O=C(Nc1cc([N+](=O)[O-])c[nH]c1=O)c1ccccc1 |
| 169 to 170 °C | CS(=O)(=O)Nc1cc2c(cc1Oc1ccccc1)C(=O)C(Br)(Br)CO2 |
| 260 °C | Cc1nc2c3c(ccc2[nH]1)[C@H]1OCCO[C@@H]1[C@@H](c1ccccc1)O3 |
| 186 to 190 °C | COc1cc2c(cc1N1CCN(CC3=CC4=CCSC4=C3)CC1)OCC2 |
| 140 °C | CCCCC1=Nc2ccccc2C(=O)C1 |
| 146 to 149 °C | COc1nc(C)nc(NC(=NS(=O)(=O)c2cccnc2)SC)n1 |
| 102 to 104 °C | CC(=O)OC[C@@](O)(c1ccc(F)cc1F)[C@H](C)c1ccncn1 |
| 94 to 96 °C | Cc1cc(C=O)ccc1-c1ccc(O)cc1 |
| 258 °C | O=c1[nH]ncn1-c1ccc(I)cc1 |
| 64 to 66 °C | COC1=C(OC)C(=O)C2=C(CC(CCCCCCCCOc3ccc(Cl)cc3)C2)C1=O |
| 219 to 221 °C | O=C1c2ccccc2C(Cc2ccnc(F)c2)(Cc2ccnc(F)c2)c2cc(O)ccc21 |
| 36 to 38 °C | CC(C)(C)[Si](C)(C)Oc1ccc([N+](=O)[O-])cc1 |
| 175 to 177 °C | CN1CCCC1=NCCSc1cc2ccccc2[nH]1 |
| 119 to 120 °C | CCCc1nn(-c2ccc(C(F)(F)F)cn2)cc1CCCOc1ccc(CCC(=O)O)c(OCC)c1 |

— a melting point compilation (Tetko et al.; mined from patent text by program, amines drawn as free bases though some values may be those of a salt)
